Test results taken from the NIST ThermoML archive (doi:10.1021/je049671t).

Experiment: xn = mol fraction of the nth substance listed
Settings: Liquid, Vibrating tube method

CC(C)C [2-methylpropane] + CCCC
Settings	mass density [kg/m3]
300 K, 5514.6 kPa, x2 = 0.25	564.1
300 K, 5950.5 kPa, x2 = 0.75	574.92
300 K, 5960.3 kPa, x2 = 0.5	570.04
300 K, 6036.6 kPa, x2 = 0.25	565.05
300 K, 6473.1 kPa, x2 = 0.75	575.78
300 K, 6498 kPa, x2 = 0.25	565.9
300 K, 6511.5 kPa, x2 = 0.5	571.01
300 K, 7001.6 kPa, x2 = 0.25	566.76
300 K, 7003.6 kPa, x2 = 0.5	571.85
300 K, 7005.5 kPa, x2 = 0.75	576.66
320 K, 978.9 kPa, x2 = 0.5	535.28
320 K, 1008.4 kPa, x2 = 0.75	541.4
320 K, 1010.3 kPa, x2 = 0.25	529.04
320 K, 1496.2 kPa, x2 = 0.25	530.4
320 K, 1506.1 kPa, x2 = 0.75	542.64
320 K, 1594.1 kPa, x2 = 0.5	536.89
320 K, 2006 kPa, x2 = 0.75	543.82
320 K, 2007.9 kPa, x2 = 0.5	537.95
320 K, 2013.6 kPa, x2 = 0.25	531.82
320 K, 2503.8 kPa, x2 = 0.75	545.03
320 K, 2511 kPa, x2 = 0.25	533.15
320 K, 2513.8 kPa, x2 = 0.5	539.22
320 K, 2989.3 kPa, x2 = 0.25	534.4
320 K, 2990.8 kPa, x2 = 0.75	546.14
320 K, 3020.8 kPa, x2 = 0.5	540.47
320 K, 3465.4 kPa, x2 = 0.5	541.53
320 K, 3504.2 kPa, x2 = 0.25	535.74
320 K, 3510.6 kPa, x2 = 0.75	547.3
320 K, 3972.8 kPa, x2 = 0.5	542.72
320 K, 3986.7 kPa, x2 = 0.75	548.41
320 K, 4006.4 kPa, x2 = 0.25	537
320 K, 4485.3 kPa, x2 = 0.25	538.17
320 K, 4492.1 kPa, x2 = 0.5	543.94
320 K, 4515.1 kPa, x2 = 0.75	549.56
320 K, 4992.4 kPa, x2 = 0.5	545.07
320 K, 4997.8 kPa, x2 = 0.75	550.6
320 K, 4998.1 kPa, x2 = 0.25	539.39
320 K, 5465.3 kPa, x2 = 0.5	546.12
320 K, 5506.3 kPa, x2 = 0.25	540.6
320 K, 5508.2 kPa, x2 = 0.75	551.69
320 K, 5970.9 kPa, x2 = 0.25	541.67
320 K, 5971.8 kPa, x2 = 0.5	547.22
320 K, 6015.9 kPa, x2 = 0.75	552.74
320 K, 6462.7 kPa, x2 = 0.5	548.28
320 K, 6488.4 kPa, x2 = 0.75	553.71
320 K, 6514.9 kPa, x2 = 0.25	542.91
320 K, 7034.9 kPa, x2 = 0.25	544.07
320 K, 7065.7 kPa, x2 = 0.75	554.85
320 K, 7093.8 kPa, x2 = 0.5	549.62
340 K, 998.6 kPa, x2 = 0.5	506.59
340 K, 1008.5 kPa, x2 = 0.75	513.55
340 K, 1505.9 kPa, x2 = 0.75	515.25
340 K, 1510 kPa, x2 = 0.25	501.39
340 K, 1561.3 kPa, x2 = 0.5	508.67
340 K, 2003.4 kPa, x2 = 0.25	503.24
340 K, 2008.5 kPa, x2 = 0.5	510.27
340 K, 2020.5 kPa, x2 = 0.75	516.97
340 K, 2495.8 kPa, x2 = 0.25	505.08
340 K, 2500.9 kPa, x2 = 0.75	518.54
340 K, 2527.9 kPa, x2 = 0.5	512.06
340 K, 3001.4 kPa, x2 = 0.5	513.65
340 K, 3005.7 kPa, x2 = 0.75	520.07
340 K, 3009.8 kPa, x2 = 0.25	506.91
340 K, 3499.6 kPa, x2 = 0.75	521.61
340 K, 3512.9 kPa, x2 = 0.25	508.67
340 K, 3521.9 kPa, x2 = 0.5	515.35
340 K, 4004.8 kPa, x2 = 0.25	510.31
340 K, 4004.8 kPa, x2 = 0.75	523.11
340 K, 4042.3 kPa, x2 = 0.5	516.97
340 K, 4496.4 kPa, x2 = 0.75	524.53
340 K, 4508.6 kPa, x2 = 0.25	511.95
340 K, 4526.2 kPa, x2 = 0.5	518.46
340 K, 4981.3 kPa, x2 = 0.25	513.47
340 K, 4988.5 kPa, x2 = 0.5	519.84
340 K, 4990.6 kPa, x2 = 0.75	525.87
340 K, 5500.3 kPa, x2 = 0.25	515.08
340 K, 5502 kPa, x2 = 0.5	521.34
340 K, 5515.9 kPa, x2 = 0.75	527.37
340 K, 5973.6 kPa, x2 = 0.75	528.61
340 K, 5999.1 kPa, x2 = 0.25	516.58
340 K, 6016.6 kPa, x2 = 0.5	522.8
340 K, 6476.8 kPa, x2 = 0.5	524.07
340 K, 6496.3 kPa, x2 = 0.75	529.99
340 K, 6508.8 kPa, x2 = 0.25	518.07
340 K, 7019.3 kPa, x2 = 0.75	531.33
340 K, 7019.9 kPa, x2 = 0.25	519.55
340 K, 7084.7 kPa, x2 = 0.5	525.72
360 K, 1517.1 kPa, x2 = 0.75	483.05
360 K, 1517.3 kPa, x2 = 0.5	475.07
360 K, 1523.6 kPa, x2 = 0.25	466.34
360 K, 1975.7 kPa, x2 = 0.25	469.15
360 K, 1976.3 kPa, x2 = 0.75	485.36
360 K, 2018.5 kPa, x2 = 0.5	477.84
360 K, 2482.6 kPa, x2 = 0.25	472.1
360 K, 2496 kPa, x2 = 0.75	487.85
360 K, 2525 kPa, x2 = 0.5	480.5
360 K, 2961.3 kPa, x2 = 0.75	489.97
360 K, 3005.9 kPa, x2 = 0.5	482.91
360 K, 3010.1 kPa, x2 = 0.25	474.99
360 K, 3489.3 kPa, x2 = 0.75	492.24
360 K, 3507.7 kPa, x2 = 0.25	477.58
360 K, 3511.2 kPa, x2 = 0.5	485.28
360 K, 3977.2 kPa, x2 = 0.75	494.26
360 K, 4007.3 kPa, x2 = 0.25	480.03
360 K, 4019.1 kPa, x2 = 0.5	487.57
360 K, 4443.6 kPa, x2 = 0.75	496.16
360 K, 4493 kPa, x2 = 0.25	482.35
360 K, 4510.2 kPa, x2 = 0.5	489.71
360 K, 4948.8 kPa, x2 = 0.75	498.12
360 K, 5010.2 kPa, x2 = 0.25	484.66
360 K, 5018.9 kPa, x2 = 0.5	491.8
360 K, 5499.8 kPa, x2 = 0.75	500.18
360 K, 5503.6 kPa, x2 = 0.25	486.78
360 K, 5508.6 kPa, x2 = 0.5	493.77
360 K, 5964.2 kPa, x2 = 0.75	501.91
360 K, 6002.5 kPa, x2 = 0.25	488.86
360 K, 6019.4 kPa, x2 = 0.5	495.75
360 K, 6484.4 kPa, x2 = 0.75	503.73
360 K, 6497.2 kPa, x2 = 0.25	490.83
360 K, 6511.4 kPa, x2 = 0.5	497.56
360 K, 7022.1 kPa, x2 = 0.5	499.47
360 K, 7041 kPa, x2 = 0.25	492.93
360 K, 7073.3 kPa, x2 = 0.75	505.68
380 K, 1992.3 kPa, x2 = 0.75	445.43
380 K, 2496.5 kPa, x2 = 0.25	428.54
380 K, 2506.6 kPa, x2 = 0.5	440.41
380 K, 2519.3 kPa, x2 = 0.75	449.94
380 K, 3005 kPa, x2 = 0.5	444.82
380 K, 3007.8 kPa, x2 = 0.25	433.95
380 K, 3014.5 kPa, x2 = 0.75	453.77
380 K, 3482.8 kPa, x2 = 0.75	457.09
380 K, 3498.2 kPa, x2 = 0.25	438.53
380 K, 3519 kPa, x2 = 0.5	448.92
380 K, 4000 kPa, x2 = 0.25	442.76
380 K, 4015.3 kPa, x2 = 0.5	452.56
380 K, 4022 kPa, x2 = 0.75	460.64
380 K, 4463.2 kPa, x2 = 0.25	446.33
380 K, 4476.8 kPa, x2 = 0.75	463.44
380 K, 4521.7 kPa, x2 = 0.5	456
380 K, 4994 kPa, x2 = 0.75	466.44
380 K, 5001.3 kPa, x2 = 0.5	459.04
380 K, 5004.6 kPa, x2 = 0.25	450.19
380 K, 5481.2 kPa, x2 = 0.25	453.35
380 K, 5504.5 kPa, x2 = 0.75	469.24
380 K, 5511.6 kPa, x2 = 0.5	462.08
380 K, 5986.7 kPa, x2 = 0.25	456.5
380 K, 5998.4 kPa, x2 = 0.75	471.8
380 K, 6010.6 kPa, x2 = 0.5	464.88
380 K, 6475.4 kPa, x2 = 0.75	474.16
380 K, 6476.8 kPa, x2 = 0.25	459.36
380 K, 6505.2 kPa, x2 = 0.5	467.52
380 K, 6967.5 kPa, x2 = 0.75	476.48
380 K, 6981.4 kPa, x2 = 0.5	469.94
380 K, 7003.2 kPa, x2 = 0.25	462.28

mass density [kg/m3]
Settings	300 K	320 K	340 K	360 K	380 K
x2 = 0.25	553.87	527.89	499.35	–	424.73
x2 = 0.5	559.44	534.14	506.18	474.18	435.21
x2 = 0.75	564.78	540.17	512.91	481.73	445.14
